Experimental data: US9187424B1, “Aryl dihydropyridinones and piperidinone MGAT2 inhibitors” (Bristol-Myers Squibb Company, priority 2011, dated 2015)

Target: Human MGAT-2 (Homo sapiens (Human), UniProt Q3SYC2)
Test: MGAT LCMS Assay (human MGAT-2);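 note: diolein product quantified by LC/MS with positive APCI, expressed as peak area ratio versus an internal standard, and this ratio used to derive IC50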
Format: biochemical
Details: human MGAT-2 membranes expressed in Sf9 cells; 2-oleoylglycerol and oleoyl-Coenzyme A; read-out: h-MGAT2 IC50 (nM) LCMS Assay

Sequence of Human MGAT-2 (Q3SYC2 whole entry): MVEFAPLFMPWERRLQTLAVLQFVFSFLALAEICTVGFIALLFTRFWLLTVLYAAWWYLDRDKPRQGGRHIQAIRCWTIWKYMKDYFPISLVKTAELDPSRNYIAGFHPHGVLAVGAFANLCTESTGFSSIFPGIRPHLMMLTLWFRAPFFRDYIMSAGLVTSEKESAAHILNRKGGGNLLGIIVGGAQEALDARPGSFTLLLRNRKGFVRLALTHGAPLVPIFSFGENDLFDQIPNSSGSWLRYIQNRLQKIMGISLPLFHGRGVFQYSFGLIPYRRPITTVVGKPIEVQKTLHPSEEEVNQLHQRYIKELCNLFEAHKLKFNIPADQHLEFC

| SMILES | IC50 [nM] |
| --- | --- |
| Cc1ccc(C2=C(Oc3ccccc3)C(=O)N[C@@](c3ccc(OCCCC(F)(F)F)cc3)(C(F)(F)F)C2)cc1 [Example 106, (S)-3-Phenoxy-4-p-tolyl-6-(4-(4,4,4-trifluorobutoxy)phenyl)-6-(trifluoromethyl)-5,6-dihydropyridin-2(1H)-one] | 552 |
| CCCCOc1ccc(C2(C)CC(c3ccc(C)cc3)=C(C#N)C(=O)N2)cc1 (stereo not drawn) [Example 107, 6-(4-Butoxyphenyl)-6-methyl-2-oxo-4-p-tolyl-1,2,5,6-tetrahydropyridine-3-carbonitrile] | 93 |
| Cc1ccc(C2=C(C(O)Nc3ccccc3)C(=O)NC(c3ccc(OCCCC(F)(F)F)cc3)(C(F)(F)F)C2)cc1 (stereo not drawn) [Example 115] | 40 |
| Cc1ccc(C2=C(C(=O)Nc3cccc(C)c3)C(=O)NC(c3ccc(OCCC(F)(F)F)cc3)(C(F)(F)F)C2)cc1 (stereo not drawn) [Example 128] | 328 |
| Cc1ccc(NC(=O)C2=C(c3ccc(C)cc3)CC(c3ccc(OCCC(F)(F)F)cc3)(C(F)(F)F)NC2=O)cc1 (stereo not drawn) [Example 129] | 222 |
| Cc1ccc(C2=C(C(=O)Nc3cc(C)[nH]n3)C(=O)NC(c3ccc(OCCC(F)(F)F)cc3)(C(F)(F)F)C2)cc1 (stereo not drawn) [Example 131] | 1050 |
| Cc1ccc(C2=C(C(=O)Nn3cnc([N+](=O)[O-])n3)C(=O)NC(c3ccc(OCCC(F)(F)F)cc3)(C(F)(F)F)C2)cc1 (stereo not drawn) [Example 132] | 163 |
| Cc1ccc(C2=C(C(=O)Nc3ccc(-c4nn[nH]n4)cc3)C(=O)NC(c3ccc(OCCC(F)(F)F)cc3)(C(F)(F)F)C2(F)F)cc1 (stereo not drawn) [Example 134] | 168 |
| Cc1ccc(NC(=O)C2=C(c3ccc(C)cc3)C(F)(F)C(c3ccc(OCCC(F)(F)F)cc3)(C(F)(F)F)NC2=O)cc1 (stereo not drawn) [Example 135] | 778 |
| Cc1ccc(C2=C(C(=O)NC3CCCC3)C(=O)NC(c3ccc(OCCCC(F)(F)F)cc3)(C(F)(F)F)C2(F)F)cc1 (stereo not drawn) [Example 141] | 459 |
| Cc1ccc(C2=C(NC(=O)c3cnco3)C(=O)NC(c3ccc(OCCCC(F)(F)F)cc3)(C(F)(F)F)C2)cc1 (stereo not drawn) [Example 152] | 252 |
| CCCCCCNC(=O)c1ccc(C2(C(F)(F)F)CC(c3ccc(C)cc3)=C(C(=O)Nc3ccc(OC)cc3)C(=O)N2)cc1 (stereo not drawn) [Example 155] | 484 |
| COc1ccc(C(=O)NC2=C(c3ccc(C)cc3)C(F)(F)C(c3ccc(OCCC(F)(F)F)cc3)(C(F)(F)F)NC2=O)cc1 (stereo not drawn) [Example 162] | 214 |
| COc1ccc(NC(=O)C2=C(c3ccc(C)cc3)CC(C)(C(=O)NCCCc3ccccc3)NC2=O)cc1 (stereo not drawn) [Example 175] | 264 |
| COc1ccc(C2=C(NC(=O)c3cc(C)no3)C(=O)NC(c3ccc(OCCCC(F)(F)F)cc3)(C(F)(F)F)C2)cc1 (stereo not drawn) [Example 176] | 3 |
| CCCCCCCCNC(=O)C1(C)CC(c2ccc(C)cc2)=C(C#N)C(=O)N1 (stereo not drawn) [Example 177] | 399 |
| Cc1ccc(C2=C(C#N)C(=O)NC(c3ccc(OCCCCCC(F)(F)F)cc3)(C(F)(F)F)C2)cc1 (stereo not drawn) [Example 184] | 76 |
| Cc1ccc(C2=C(NC(=O)c3cc(-c4ccccc4Cl)no3)C(=O)NC(c3ccc(OCCCC(F)(F)F)cc3)(C(F)(F)F)C2)cc1 (stereo not drawn) [Example 185] | 121 |
| COc1cc(C(=O)NC2=C(c3ccc(C)cc3)CC(c3ccc(OCCCC(F)(F)F)cc3)(C(F)(F)F)NC2=O)on1 (stereo not drawn) [Example 187] | 4 |
| COc1ccc(NC(=O)C2=C(c3ccc(C)cc3)CC(C)(C(=O)NCC(C)C)NC2=O)cc1 (stereo not drawn) [Example 188] | 1520 |
| Cc1ccc(C2=C(NC(=O)c3cc(-c4cccc(F)c4)no3)C(=O)NC(c3ccc(OCCCC(F)(F)F)cc3)(C(F)(F)F)C2)cc1 (stereo not drawn) [Example 190] | 155 |
| CCCCCCC(=O)CNC(=O)C1(C)CC(c2ccc(C)cc2)=C(NC(=O)c2ccc(OC)cc2)C(=O)N1 (stereo not drawn) [Example 191] | 797 |
| Cc1ccc(C2=C(c3cn[nH]n3)C(=O)NC(C#CCCc3ccccc3)(C(F)(F)F)C2)cc1 (stereo not drawn) [Example 198] | 16 |
| Cc1ccc(C2=C(c3cn[nH]n3)C(=O)NC(C#CCCC(C)C)(C(F)(F)F)C2)cc1 (stereo not drawn) [Example 199] | 16 |
| CCOCc1ccc(C2=C(c3nn[nH]n3)C(=O)NC(c3ccc(OCCCC(F)(F)F)cc3)(C(F)(F)F)C2)cc1F (stereo not drawn) [Example 203] | 59 |
| O=C1NC(c2ccc(OCCCC(F)(F)F)cc2)(C(F)(F)F)CC(c2ccc3ccccc3c2)=C1c1nn[nH]n1 (stereo not drawn) [Example 207] | 11 |
| CCOc1ccc(C2=C(c3nn[nH]n3)C(=O)NC(c3ccc(OCCCC(F)(F)F)cc3)(C(F)(F)F)C2)cc1 (stereo not drawn) [Example 208] | 30 |
| O=C1NC(c2ccc(OCCCC(F)(F)F)cc2)(C(F)(F)F)CC(c2ccc3c(c2)OCCO3)=C1c1nn[nH]n1 (stereo not drawn) [Example 209] | 37 |
| O=C1NC(c2ccc(OCCCC(F)(F)F)cc2)(C(F)(F)F)CC(c2ccc3c(c2)OCO3)=C1c1nn[nH]n1 (stereo not drawn) [Example 211] | 97 |
| COc1ccc(C2=C(c3nn[nH]n3)C(=O)NC(c3ccc(OCCCC(F)(F)F)cc3)(C(F)(F)F)C2)c2c1CCC2 (stereo not drawn) [Example 212] | 416 |

More lines, in order of falling IC50, values ahead:

| IC50 [nM] | SMILES |
| --- | --- |
| 16700 | Cc1ccc(C2=C(n3cnnn3)C(=O)NC(c3ccc(OCCCC(F)(F)F)cc3)(C(F)(F)F)C2(F)F)cc1 (stereo not drawn) [Example 159] |
| 5800 | COc1ccc(C2(C(F)(F)F)NC(=O)C(C#N)=C(c3ccc(C)cc3)C2(F)F)cc1 (stereo not drawn) [Example 138] |
| 5400 | Cc1ccc(C2=C(C#N)C(=O)NC(c3ccc(OCCCC(F)(F)F)cc3)(C(F)(F)F)C2(F)F)cc1 (stereo not drawn) [Example 160] |
| 5120 | Cc1ccc(C2=C(NC(=O)c3cocn3)C(=O)NC(c3ccc(OCCCC(F)(F)F)cc3)(C(F)(F)F)C2)cc1 (stereo not drawn) [Example 151] |
| 2050 | COc1ccc(NC(=O)C2=C(c3ccc(C)cc3)C(F)(F)C(c3ccc(OC)cc3)(C(F)(F)F)NC2=O)cc1 (stereo not drawn) [Example 181] |
| 2050 | COc1ccc(Cn2cc(C3(C(F)(F)F)CC(c4ccc(C)cc4)=C(c4nn[nH]n4)C(=O)N3)cn2)cc1 (stereo not drawn) [Example 182] |
| 1260 | CCCCCNC(=O)c1ccc(C2(C)CC(c3ccc(C)cc3)=C(C(=O)Nc3ccc(OC)cc3)C(=O)N2)cc1 (stereo not drawn) [Example 161] |
| 1160 | COc1ccc(NC(=O)C2=C(c3ccc(C)cc3)CC(C)(C(=O)NCc3ccccc3)NC2=O)cc1 (stereo not drawn) [Example 189] |
| 826 | CCCCCCCC#CC1(C(F)(F)F)CC(c2ccc(C)cc2)=C(c2cn[nH]n2)C(=O)N1 (stereo not drawn) [Example 196] |
| 704 | Cc1ccc(C2=C(n3ccnc3)C(=O)NC(c3ccc(OCCCC(F)(F)F)cc3)(C(F)(F)F)C2)cc1 (stereo not drawn) [Example 114] |
| 433 | Cc1ccc(C2=C(NC(=O)n3ncnn3)C(=O)NC(c3ccc(OCCCC(F)(F)F)cc3)(C(F)(F)F)C2)cc1 (stereo not drawn) [Example 192] |
| 421 | Cc1ccc(C2=C(NC(=O)c3cccc(Cl)c3)C(=O)NC(c3ccc(OCCCC(F)(F)F)cc3)(C(F)(F)F)C2)cc1 (stereo not drawn) [Example 169] |
| 356 | COc1ccc(C2=C(c3ccc(C)cc3)C(F)(F)C(c3ccc(OCCCC(F)(F)F)cc3)(C(F)(F)F)NC2=O)cn1 (stereo not drawn) [Example 140] |
| 328 | Cc1ccc(C2=C(C(=O)Nc3nnc(C(F)(F)F)o3)C(=O)NC(c3ccc(OCCC(F)(F)F)cc3)(C(F)(F)F)C2)cc1 (stereo not drawn) [Example 136] |
| 282 | Cc1ccc(C2=C(C(=O)Nc3nn[nH]n3)C(=O)NC(c3ccc(OCCC(F)(F)F)cc3)(C(F)(F)F)C2)cc1 (stereo not drawn) [Example 125] |
| 254 | Cc1ccc(C2=C(c3nnn[nH]3)C(=O)NC(c3ccc(OCCCC(F)(F)F)cc3)(C(F)(F)F)C2)c(C)c1 (stereo not drawn) [Example 156] |
| 252 | Cc1ccc(C2=C(C(=O)Nc3ccccc3OC(F)(F)F)C(=O)NC(c3ccc(OCCC(F)(F)F)cc3)(C(F)(F)F)C2)cc1 (stereo not drawn) [Example 137] |

| IC50 [nM] | SMILES |
| --- | --- |
| 247 | Cc1ccc(C2=C(NC(=O)c3cnccn3)C(=O)NC(c3ccc(OCCCC(F)(F)F)cc3)(C(F)(F)F)C2)cc1 (stereo not drawn) [Example 153] |
| 229 | Cc1ccc(C2=C(n3cnnc3C)C(=O)NC(c3ccc(OCCCC(F)(F)F)cc3)(C(F)(F)F)C2)cc1 (stereo not drawn) [Example 186] |
| 210 | Cc1ccc(C2=C(NC(=O)c3ccc(F)cc3Cl)C(=O)NC(c3ccc(OCCCC(F)(F)F)cc3)(C(F)(F)F)C2)cc1 (stereo not drawn) [Example 170] |
| 189 | CCCCCCc1cnc(C2(C)CC(c3ccc(C)cc3)=C(C#N)C(=O)N2)o1 (stereo not drawn) [Example 108, 6-(5-Hexyloxazol-2-yl)-6-methyl-2-oxo-4-p-tolyl-1,2,5,6-tetrahydropyridine-3-carbonitrile] |
| 178 | Cc1ccc(C2=C(c3cn[nH]n3)C(=O)NC(C#CC3CC3)(C(F)(F)F)C2)cc1 (stereo not drawn) [Example 197] |
| 162 | COc1ccc(C(=O)NC2=C(c3ccc(C)cc3)C(F)(F)C(c3ccc(OCCCCC(F)(F)F)cc3)(C(F)(F)F)NC2=O)cc1 (stereo not drawn) [Example 164] |
| 113 | Cc1ccc(C2=C(NC(=O)c3ccccc3Cl)C(=O)NC(c3ccc(OCCCC(F)(F)F)cc3)(C(F)(F)F)C2)cc1 (stereo not drawn) [Example 168] |
| 89 | COCc1ccc(C2=C(c3nn[nH]n3)C(=O)NC(c3ccc(OCCCC(F)(F)F)cc3)(C(F)(F)F)C2)cc1 (stereo not drawn) [Example 202] |
| 46 | COc1ccc(C2=C(c3nn[nH]n3)C(=O)NC(c3ccc(OCCCC(F)(F)F)cc3)(C(F)(F)F)C2)cc1 (stereo not drawn) [Example 193] |
| 39 | CCCCCCCn1ccc(C2(C)CC(c3ccc(C)cc3)=C(C#N)C(=O)N2)n1 (stereo not drawn) [Example 109, 6-(1-Heptyl-1H-pyrazol-3-yl)-6-methyl-2-oxo-4-p-tolyl-1,2,5,6-tetrahydropyridine-3-carbonitrile] |
| 37 | Cc1ccc(C2=C(NC(=O)c3ccc(OC(F)(F)F)cc3)C(=O)NC(c3cnn(CCCCCC(F)(F)F)c3)(C(F)(F)F)C2)cc1 (stereo not drawn) [Example 200] |
| 33 | CCCCCCCC#CC1(C(F)(F)F)CC(c2ccc(C)cc2)=C(c2cn[nH]n2)C(=O)N1 (stereo not drawn) [Example 195] |
| 24 | Cc1ccc(C2=C(NC(=O)c3ccc(OC(F)F)cc3)C(=O)NC(c3cnn(CCCCCC(F)(F)F)c3)(C(F)(F)F)C2)cc1 (stereo not drawn) [Example 201] |
| 13 | O=C1NC(c2ccc(OCCCC(F)(F)F)cc2)(C(F)(F)F)CC(c2ccc(OC(F)F)cc2)=C1c1nn[nH]n1 (stereo not drawn) [Example 205] |
| 6 | CCCCCC#CC1(C(F)(F)F)CC(c2ccc(C)cc2)=C(c2cn[nH]n2)C(=O)N1 (stereo not drawn) [Example 194] |
| 2 | O=C1NC(c2ccc(OCCCC(F)(F)F)cc2)(C(F)(F)F)CC(c2ccc3c(c2)CCCC3)=C1c1nn[nH]n1 (stereo not drawn) [Example 210] |
